Consider 21 molecules from patent publication US9567322B2, “Substituted tetrahydropyrans and method of use” (AbbVie S.á.r.l., priority 2014, dated 2017).

This test deals with T1, F508delCFTR (Homo sapiens, UniProt P13569, DEL508-508).
T1 construct: expressed in transfected cells; host or cells: CFBE41o- (CFBE41o-F508delCFTR-HRP), doxycycline-inducible
Nature of the test: Cell Surface Expression-Horse Radish Peroxidase (CSE-HRP) assay. As to conditions: CFBE41o-F508delCFTR-HRP cells; for EC50: cell surface expression, luminescence readout, 18-24 hours at 33° C., highest concentration tested 20 μM, 8-point curve; for Maximum % activity: maximum at any tested concentration, normalized to on-plate positive control (3 μM) and DMSO. Format: cell-based. From the text:
Cell Surface Expression-Horse Radish Peroxidase (CSE-HRP) Assay:
A cellular assay for measuring the F508delCFTR cell surface expression after correction with test compounds was developed in human lung derived epithelial cell line (CFBE41o-) (Veit G et al, (2012) Mol Biol Cell. 23(21): 4188-4202). This was achieved by expressing the F508delCFTR mutation along with a horseradish peroxidase (HRP) in the fourth exofacial loop and then measuring the HRP activity using luminescence readout from these cells, CFBE41o-F508delCFTR-HRP, that were incubated overnight with the test corrector compounds. Briefly, for this primary assay, the CFBE41o-F508delCFTR-HRP cells were plated in 384-well plates (Greiner Bio-one; Cat 781080) at 4,000 cells/well along with 0.5 μg/mL doxycycline to induce the F508delCFTR-HRP expression and further incubated at 37° C., 5% CO2 for 72 hours. The test compounds were then added at the required concentrations and further incubated for 18-24 hours at 33° C. The highest concentration tested was 20 μM with an 8-point concentration response curve using a 3-fold dilution. Three replicate plates were run to determine one EC50. All plates contained negative controls (dimethyl sulfoxide, DMSO) and positive controls (3 μM of 3-[(2R,4R)-4-({[1-(2,2-difluoro-1,3-benzodioxol-5-yl)cyclopropyl]carbonyl}amino)-7-methoxy-3,4-dihydro-2H-chromen-2-yl]benzoic acid) as well as on-plate concentration response of the positive control. Post incubation, the plates were washed 5× times with Dulbecco's phosphate buffered saline (DPBS), followed by the addition of the HRP substrate, luminol (50 μL), and measuring the HRP activity using luminescence readout on EnVision® Multilabel Plate Reader (Perkin Elmer; product number 2104-0010). The raw counts from the experiment are analyzed using Accelrys® Assay Explorer v3.3.
Z′ greater than 0.5 was used as passing quality control criteria for the plates.
The Z′ is defined as: 1−[3*SDPositive Control+3*SDNegative Control/Absolute(MeanPositive Control−MeanNegative Control)],
wherein “SD” is standard deviation.
The % activity measured at each of the 8 test concentrations of the test compound was normalized to the on-plate positive control using the following formula: % activity=[(test compound response−DMSO response)/(positive control response−DMSO response)]*100
The maximum % activity achieved for the test compound at any tested concentration is presented in Table 1 along with the EC50 calculated using the following general sigmoidal curve with variable Hill slope equation (described as Model 42 in the Accelrys® Assay Explorer v3.3 software): y=(a−d)/(1+(x/c)^b)+d General sigmoidal curve with concentration, response, top, bottom, EC50 and Hill slope.
This model describes a sigmoidal curve with an adjustable baseline, a. The equation can be used to fit curves where response is either increasing or decreasing with respect to the independent variable, “x”.
“x” is a concentration of drug under test.
“a” is the maximum response, and “d” is the minimum response
“c” is the inflection point (EC50) for the curve. That is, “y” is halfway between the lower and upper asymptotes when x=c.
“b” is the slope-factor or Hill coefficient. The sign of b is positive when the response increases with increasing dose and is negative when the response decreases with increasing dose (inhibition).

T1 sequence (P13569 with tags, fused parts or gaps DEL508-508): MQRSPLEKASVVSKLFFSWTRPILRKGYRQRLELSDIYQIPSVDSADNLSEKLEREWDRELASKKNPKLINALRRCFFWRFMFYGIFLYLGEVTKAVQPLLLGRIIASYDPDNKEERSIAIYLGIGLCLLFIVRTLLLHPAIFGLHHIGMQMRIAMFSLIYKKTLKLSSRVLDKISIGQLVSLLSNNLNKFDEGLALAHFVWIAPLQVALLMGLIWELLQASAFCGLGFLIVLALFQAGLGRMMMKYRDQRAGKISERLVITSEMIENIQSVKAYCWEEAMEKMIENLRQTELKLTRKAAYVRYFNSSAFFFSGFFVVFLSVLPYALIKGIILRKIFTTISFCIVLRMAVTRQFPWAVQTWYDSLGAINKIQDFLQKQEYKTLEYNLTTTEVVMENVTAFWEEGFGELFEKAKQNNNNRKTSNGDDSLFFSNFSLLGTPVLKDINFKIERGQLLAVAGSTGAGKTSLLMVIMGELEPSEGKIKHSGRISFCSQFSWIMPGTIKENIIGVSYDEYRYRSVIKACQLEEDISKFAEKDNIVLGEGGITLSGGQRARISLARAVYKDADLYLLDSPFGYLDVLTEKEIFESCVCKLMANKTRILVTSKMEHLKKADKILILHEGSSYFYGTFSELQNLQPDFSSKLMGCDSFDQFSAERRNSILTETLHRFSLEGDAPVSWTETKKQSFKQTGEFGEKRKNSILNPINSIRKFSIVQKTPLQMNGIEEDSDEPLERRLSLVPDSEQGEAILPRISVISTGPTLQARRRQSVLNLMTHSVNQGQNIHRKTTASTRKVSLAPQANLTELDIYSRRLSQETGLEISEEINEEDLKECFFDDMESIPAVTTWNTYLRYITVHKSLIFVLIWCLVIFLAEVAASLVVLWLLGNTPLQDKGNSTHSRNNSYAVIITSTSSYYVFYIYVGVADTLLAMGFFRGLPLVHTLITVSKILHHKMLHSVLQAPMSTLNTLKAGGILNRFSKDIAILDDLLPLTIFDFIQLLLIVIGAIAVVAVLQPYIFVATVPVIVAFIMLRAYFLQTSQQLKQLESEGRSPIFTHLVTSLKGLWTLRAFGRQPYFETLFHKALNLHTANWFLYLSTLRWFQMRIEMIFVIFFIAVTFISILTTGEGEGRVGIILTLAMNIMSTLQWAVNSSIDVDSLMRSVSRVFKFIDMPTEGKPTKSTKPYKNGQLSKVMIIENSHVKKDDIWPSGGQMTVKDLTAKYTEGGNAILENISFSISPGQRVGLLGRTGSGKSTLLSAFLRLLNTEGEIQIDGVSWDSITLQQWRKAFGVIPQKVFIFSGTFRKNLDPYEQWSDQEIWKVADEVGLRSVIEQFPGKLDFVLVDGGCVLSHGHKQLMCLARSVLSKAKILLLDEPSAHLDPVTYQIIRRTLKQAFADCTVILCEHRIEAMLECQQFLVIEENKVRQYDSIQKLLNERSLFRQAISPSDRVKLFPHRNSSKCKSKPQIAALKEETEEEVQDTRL

On to `Cc1cc(C(=O)O)ccc1[C@H]1C[C@H](NC(=O)C2(c3ccc4c(c3)OC(F)(F)O4)CC2)C[C@@H](c2ccccc2)O1` (racemic) [Example 64, rac-4-[(2R,4R,6S)-4-({[1-(2,2-difluoro-1,3-benzodioxol-5-yl)cyclopropyl]carbonyl}amino)-6-phenyltetrahydro-2H-pyran-2-yl]-3-methylbenzoic acid], for which the EC50 turned out to be 2.4 µM. Moreover, the Maximum % activity (3 µM) came to 53%.

Take `CCOC(=O)c1cccc([C@H]2C[C@@H](NC(=O)C3(c4ccc5c(c4)OC(F)(F)O5)CC3)C[C@@H](c3cccc(OC)c3)O2)c1` (racemic) [Example 68, ethyl rac-3-[(2R,4R,6S)-4-({[1-(2,2-difluoro-1,3-benzodioxol-5-yl)cyclopropyl]carbonyl}amino)-6-(3-methoxyphenyl)tetrahydro-2H-pyran-2-yl]benzoate]: the EC50 amounted to 1.04 µM and the Maximum % activity was 108%.

Turning to `COc1cccc([C@@H]2C[C@H](NC(=O)C3(c4ccc5c(c4)OC(F)(F)O5)CC3)C[C@H](c3cccc(C(=O)O)c3)O2)c1` (racemic) [Example 69, rac-3-[(2R,4R,6S)-4-({[1-(2,2-difluoro-1,3-benzodioxol-5-yl)cyclopropyl]carbonyl}amino)-6-(3-methoxyphenyl)tetrahydro-2H-pyran-2-yl]benzoic acid], the response was half-maximal at 0.42 µM (EC50) and the Maximum % activity is 85%.

`Cc1ccc(C(=O)O)cc1[C@H]1C[C@@H](NC(=O)C2(c3ccc4c(c3)OC(F)(F)O4)CC2)C[C@@H](c2ccccc2)O1` (racemic) [Example 70, rac-3-[(2R,4S,6S)-4-({[1-(2,2-difluoro-1,3-benzodioxol-5-yl)cyclopropyl]carbonyl}amino)-6-phenyltetrahydro-2H-pyran-2-yl]-4-methylbenzoic acid]: the midpoint of the response, the EC50, lay at 0.91 µM and the Maximum % activity was 92%.

Turning to `COC(=O)c1ccc(C)c([C@H]2C[C@@H](NC(=O)C3(c4ccc5c(c4)OC(F)(F)O5)CC3)C[C@@H](c3ccccc3)O2)c1` (racemic) [Example 71, methyl rac-3-[(2R,4S,6S)-4-({[1-(2,2-difluoro-1,3-benzodioxol-5-yl)cyclopropyl]carbonyl}amino)-6-phenyltetrahydro-2H-pyran-2-yl]-4-methylbenzoate], the EC50 is 1.31 µM and the Maximum % activity turned out to be 92%.

On to `CCOC(=O)c1cc(C)cc([C@H]2C[C@@H](NC(=O)C3(c4ccc5c(c4)OC(F)(F)O5)CC3)C[C@@H](c3ccccc3)O2)c1` (racemic) [Example 72, ethyl rac-3-[(2R,4S,6S)-4-({[1-(2,2-difluoro-1,3-benzodioxol-5-yl)cyclopropyl]carbonyl}amino)-6-phenyltetrahydro-2H-pyran-2-yl]-5-methylbenzoate], for which a half-maximal response (EC50) required 1.16 µM and the Maximum % activity was 106%.

For the molecule `COC(=O)c1ccc([C@@H]2C[C@H](NC(=O)C3(c4ccc5c(c4)OC(F)(F)O5)CC3)CCO2)c(C)c1` (single isomer, unassigned) [Example 40], the EC50 amounted to 2.1 µM and the Maximum % activity is reported as 60%.

For `COC(=O)c1ccc([C@H]2C[C@@H](NC(=O)C3(c4ccc5c(c4)OC(F)(F)O5)CC3)CCO2)c(C)c1` (single isomer, unassigned) [Example 41], a half-maximal response (EC50) required 0.41 µM and the Maximum % activity is listed as 104%.

For `O=C(O)c1ccc([C@@H]2C[C@H](NC(=O)C3(c4ccc5c(c4)OC(F)(F)O5)CC3)C[C@H](c3ccccc3)O2)cc1` (single isomer, unassigned) [Example 54], it took 1.71 µM to reach a half-maximal effect (EC50) and the Maximum % activity amounted to 71%.

As for `C[C@H]1C[C@@H](NC(=O)C2(c3ccc4c(c3)OC(F)(F)O4)CC2)C[C@@H](c2ccc(C(=O)O)cc2)O1` (single isomer, unassigned) [Example 58], the EC50 amounted to 7.37 µM and the Maximum % activity is 63%.

Turning to `C[C@@H]1C[C@H](NC(=O)C2(c3ccc4c(c3)OC(F)(F)O4)CC2)C[C@H](c2ccc(C(=O)O)cc2)O1` (single isomer, unassigned) [Example 59], a half-maximal effect (EC50) was put at 0.98 µM and the Maximum % activity turned out to be 90%.

Turning to `COc1ccc([C@@H]2C[C@H](NC(=O)C3(c4ccc5c(c4)OC(F)(F)O5)CC3)C[C@H](c3ccc(C(=O)O)cc3)O2)cc1` (single isomer, unassigned) [Example 66], a half-maximal response (EC50) required 0.32 µM and the Maximum % activity is reported as 79%.

Regarding `COc1ccc([C@H]2C[C@@H](NC(=O)C3(c4ccc5c(c4)OC(F)(F)O5)CC3)C[C@@H](c3ccc(C(=O)O)cc3)O2)cc1` (single isomer, unassigned) [Example 67], the EC50 worked out at 2.41 µM and the Maximum % activity is recorded as 54%.

For `COc1cccc([C@@H]2C[C@H](NC(=O)C3(c4ccc5c(c4)OC(F)(F)O5)CC3)C[C@H](c3cccc(C(=O)O)c3)O2)c1` (single isomer, unassigned) [Example 74], the EC50 amounted to 0.24 µM and the Maximum % activity was 89%.

In the case of `Cc1cc(C(=O)O)cc([C@H]2C[C@@H](NC(=O)C3(c4ccc5c(c4)OC(F)(F)O5)CC3)C[C@@H](c3ccccc3)O2)c1` (single isomer, unassigned) [Example 75], the EC50 was found to be 0.22 µM and the Maximum % activity was 105%.

Consider `Cc1cc(C(=O)O)cc([C@@H]2C[C@H](NC(=O)C3(c4ccc5c(c4)OC(F)(F)O5)CC3)C[C@H](c3ccccc3)O2)c1` (single isomer, unassigned) [Example 76], for which a half-maximal effect (EC50) was put at 1.59 µM and the Maximum % activity was 38%.

For `Cc1cc(C(=O)O)ccc1[C@H]1C[C@@H](NC(=O)C2(c3ccc4c(c3)OC(F)(F)O4)CC2)CCO1` (stereo in doubt) [Example 37, rac-4-[(2R,4S)-4-({[1-(2,2-difluoro-1,3-benzodioxol-5-yl)cyclopropyl]carbonyl}amino)tetrahydro-2H-pyran-2-yl]-3-methylbenzoic acid], the 50% effective concentration (EC50) came out at 0.47 µM and the Maximum % activity was determined as 115%.

As to `Cc1cc(C(=O)O)ccc1[C@@H]1C[C@H](NC(=O)C2(c3ccc4c(c3)OC(F)(F)O4)CC2)CCO1` (stereo in doubt) [Example 42, rel-4-[(2S,4R)-4-({[1-(2,2-difluoro-1,3-benzodioxol-5-yl)cyclopropyl]carbonyl}amino)tetrahydro-2H-pyran-2-yl]-3-methylbenzoic acid], the midpoint of the response, the EC50, lay at 6.87 µM and the Maximum % activity stood at 36%.

Consider `Cc1cc(C(=O)O)ccc1[C@H]1C[C@@H](NC(=O)C2(c3ccc4c(c3)OC(F)(F)O4)CC2)CCO1` (stereo in doubt) [Example 43, rel-4-[(2R,4S)-4-({[1-(2,2-difluoro-1,3-benzodioxol-5-yl)cyclopropyl]carbonyl}amino)tetrahydro-2H-pyran-2-yl]-3-methylbenzoic acid], for which the midpoint of the response, the EC50, lay at 0.32 µM and the Maximum % activity is given as 119%.

Take `O=C(N[C@@H]1CCO[C@H](c2ccc3c(c2)OCO3)C1)C1(c2ccc3c(c2)OC(F)(F)O3)CC1` [Example 15, N-[(2S,4R)-2-(1,3-benzodioxol-5-yl)tetrahydro-2H-pyran-4-yl]-1-(2,2-difluoro-1,3-benzodioxol-5-yl)cyclopropanecarboxamide]: the midpoint of the response, the EC50, lay at 6.7 µM and the Maximum % activity is recorded as 75%.

On to `COC(=O)c1cccc([C@@H]2C[C@H](NC(=O)C3(c4ccc5c(c4)OC(F)(F)O5)CC3)CCO2)c1` [Example 16, methyl 3-[(2S,4R)-4-({[1-(2,2-difluoro-1,3-benzodioxol-5-yl)cyclopropyl]carbonyl}amino)tetrahydro-2H-pyran-2-yl]benzoate], for which the EC50 was 2.62 µM and the Maximum % activity stood at 44%.
